Measurements as given in patent publication US20150181881A1, “METHODS FOR CONTROLLING FUNGAL DISEASES IN MUSHROOM PRODUCTION” (DSM IP ASSETS B.V., priority 2012, published 2015).

Columns and labels:
Verticillium fungicola = assay: In vitro antifungal activity in 96-well microtiter plates against Verticillium fungicola; format: cell-based
Protocol: The following compositions are tested: • Control (no active ingredient), • 1.25 or 2.5 ppm natamycin (DSM Food Specialties, Delft, The Netherlands), • 0.5 ppm chlorothalonil, • 1.25 ppm natamycin+0.5 ppm chlorothalonil, • 2.5 ppm natamycin+0.5 ppm chlorothalonil. […] Subsequently, 100 μl of a Verticillium fungicola suspension prepared in PCB medium is used to inoculate each well with 5.0×10^3 spores/ml. […] After incubation of the microtiter plates for 3 and 5 days at 25° C., the in vitro antifungal activity (%) of the individual active ingredients was assessed by calculating the reduction in mould growth observed in the presence of the active ingredient in comparison to the mould growth observed in the absence of the active ingredient. The expected antifungal activity (E in %) of the active ingredient combination was calculated according to the Colby equation (Colby, 1967): […] wherein X and Y are the observed antifungal activities (in %) of the individual active ingredients X and Y, respectively.

Trichoderma harzianum = assay: In vitro antifungal activity in 96-well microtiter plates against Trichoderma harzianum; format: cell-based
Protocol: Subsequently, 100 μl of a Verticillium fungicola suspension prepared in PCB medium is used to inoculate each well with 5.0×10^3 spores/ml.
, the in vitro antifungal activity (%) of the individual active ingredients was assessed by calculating the reduction in mould growth observed in the presence of the active ingredient in comparison to the mould growth observed in the absence of the active ingredient. The expected antifungal activity (E in %) of the active ingredient combination was calculated according to the Colby equation (Colby, 1967): […]
wherein X and Y are the observed antifungal activities (in %) of the individual active ingredients X and Y, respectively. If the observed antifungal activity (O in %) of the combination exceeds the expected antifungal activity (E in %) of the combination and the resulting synergy factor O/E is thus >1.0, the combined application of the active ingredients leads to a synergistic antifungal effect.
Furthermore, Trichoderma harzianum was used for inoculation.

[1] = Chlorothalonil 0.5 ppm, incubation 5 days at 25° C.

Measured: Observed antifungal activity O (%)

C[C@@H]1C/C=C/C=C/C=C/C=C/[C@H](O[C@@H]2O[C@H](C)[C@@H](O)[C@H](N)[C@@H]2O)C[C@@H]2O[C@](O)(C[C@@H](O)C[C@H]3O[C@@H]3/C=C/C(=O)O1)C[C@H](O)[C@H]2C(=O)O [Natamycin, natamycin]
0%: Verticillium fungicola; Natamycin 1.25 ppm, incubation 3 days at 25° C. | Verticillium fungicola; Natamycin 2.5 ppm, incubation 5 days at 25° C. | Trichoderma harzianum; Natamycin 1.25 ppm, incubation 5 days at 25° C. | Trichoderma harzianum; Natamycin 1.25 ppm, incubation 10 days at 25° C. | Trichoderma harzianum; Natamycin 1.25 ppm, incubation 17 days at 25° C. | Trichoderma harzianum; Natamycin 2.5 ppm, incubation 17 days at 25° C.

N#Cc1c(Cl)c(Cl)c(Cl)c(C#N)c1Cl [Chlorothalonil, 2,4,5,6-tetrachloroisophthalonitrile]
0%: Verticillium fungicola; Chlorothalonil 0.5 ppm, incubation 3 days at 25° C. | Verticillium fungicola; [1] | Trichoderma harzianum; [1] | Trichoderma harzianum; Chlorothalonil 1.0 ppm, incubation 10 days at 25° C. | Trichoderma harzianum; Chlorothalonil 1.0 ppm, incubation 17 days at 25° C. | Trichoderma harzianum; Chlorothalonil 1.5 ppm, incubation 17 days at 25° C.
